One substance from patent US8053627B2, “Methods for treating demyelination disorders” (University of Chicago, priority 2005, dated 2011) can be followed below.

Test [1] concerns oligodendrocytes in adult mice. As to the kind of experiment: IFN-γ expression in the CNS of adult mice (released from doxycycline at 4 weeks of age). The class given is in vivo. An excerpt:
Compared with the actively myelinating oligodendrocytes of young growing animals, oligodendrocytes in adult mice produce lower levels of membrane proteins and lipids, just enough to maintain homeostasis in the myelin structure (Morell, et al. (1999) Basic Neurochemistry: Molecular, Cellular, and Medical Aspects (Philadelphia, Pa.: Lippincott-Raven Publishers): 69-93). The ER of oligodendrocytes in adult animals may thus have more spare capacity to process increased protein load and as such may be less sensitive to disruptions of the protein secretory pathway. To examine this possibility, double transgenic mice were allowed to develop to maturity, at which time IFN-γ expression in the CNS was initiated.

In the next test the test system is BIP, CHOP, p-eIF-2α. As to the kind of experiment: ER stress markers in corpus callosum during remyelination (real time PCR, Western blot). The conditions noted are these: DOX− mice. The class given is in vivo. How it is done:
Repression of remyelination by IFN-γ is associated with ER stress. […] To determine whether IFN-γ interferes with endoplasmic reticulum (ER) function in remyelinating oligodendrocytes, the expression of ER stress markers was monitored in the corpus callosum of mice expressing IFN-γ. The study was performed using the transgenic mice described in Example 1.
The level of mRNA encoding ER stress associated genes binding immunoglobulin protein/78 KDa glucose regulated protein (BIP/GRP78) and the CAATT enhancer-binding protein homologous protein/growth and DNA damage protein 153 (CHOP/GADD153), was determined using real time PCR, as described in Example 1 in the corpus callosum of the cuprizone treated mice of Example 1. The probes, sense and antisense primers that were used were: […]
The level of phosphorylated eIF-2α, which inhibits nucleotide exchange on the eIF-2 complex and attenuates most protein synthesis, was analyzed by Western blot, and the expression was colocalized by immunostaining CC1 antibodies as described above. Western blot analysis was performed as follows. The corpus callosum from 3 mice was rinsed in ice cold phosphate-buffered saline (PBS) and pooled, and immediately homogenized in 5 volumes of Triton X-100 buffer (20 mM HEPES pH 7.5, 150 mM NaCl, 1% Triton X-100, 10% glycerol, 1 mM EDTA, 10 mM tetrasodium pyrophosphate, 100 mM NaF, 17.5 mM β-glycerophosphate, 10 mM phenylmethylsulfonyl fluoride, 15 μg/ml aprotonin, and 6 μg/ml pepstatin A) using a motorized homogenizer. After incubation on ice for 15 min, the extracts were cleared by centrifugation at 14,000 rpm twice for 30 min each. The protein content of each extract was […] by protein assay (Bio-Rad). The extracts (40 μg) were separated by sodium dodecyl sulfate-polyacrylamide gel electrophoresis and transferred to nitrocellulose. […] The following primary antibodies were used: anti-eIF-2α (1:500; Santa Cruz, Santa Cruz, Calif.), anti-p-eIF-2α (1:1000, Cell signaling Technology), anti-CHOP (1:500; Santa Cruz) and anti-actin (1:1000; Sigma, St Louis, Mo.).
For orientation: Real-time PCR tracks product formation cycle by cycle.

A further test relates to Stat1. As to the kind of experiment: Stat1 nuclear translocation assay in mixed primary oligodendrocyte cultures. Conditions: 100 U/mL IFN-γ for 30 min, one hundred PLP positive cells counted. It is filed as cell-based, mice. How it is done: Mixed primary oligodendrocyte cultures were prepared as previously described (Baerwald et al., 2000). Briefly, brain tissue was harvested from 2-3-day-old newborn pups of PLP/SOCS1 and C57B1/6J matings. Because the litters contained transgenic and wild-type pups, the brain of each animal was processed individually, cultured separately, and later genotype matched. Each brain was digested separately using 0.25% trypsin and 10 μg/ml of DNAaseI (Invitrogen) in Dulbecco's modified Eagle's medium (DMEM) for 20 min at 37° C., and cells were cultured on separate poly-D-lysine-coated […] flasks (Sigma-Aldrich). The cultures were maintained with 10% fetal bovine serum DMEM at 37° C. with 5% CO2 for 12 days, and then switched to a defined medium containing […], 50 μg/ml of transferrin, 30 nM of selenium, 10 nM of biotin, 10 nM of progesterone, 15 nM of T3, 0.1% bovine serum albumin, and 1% ampicillin-streptomycin (Sigma-Aldrich). […] One hundred PLP positive cells were manually counted in both wild-type and PLP/SOCS1 cultures. […]
The responsiveness of PLP/SOCS1 oligodendrocytes to IFN-γ was studied in primary mixed glial cultures. […] In contrast, Stat1 nuclear translocation was detected only in occasional PLP positive oligodendrocytes (6±2 cells) following IFN-γ stimulation (p<0.05).

Take “IFN-γ: pleotropic cytokine secreted by activated T lymphocytes and natural killer cells; delivered to the CNS by transgene or added as recombinant protein”: in test [1] (10-week-old double transgenic mice), the “BIP and CHOP in the cerebellum” value is “modest induction”. Moreover, the “myelin in the CNS (ultrastructural examination)” value in test [1] (10-week-old, wild-type or PERK+/− background) is reported as “normal myelin”. Moreover, in test [1] (adult mice, also PERK+/− background), the oligodendrocyte survival entry was “did not affect”. Besides, in the test on BIP, CHOP, p-eIF-2α, the “BIP mRNA increase vs control DOX+” value is “approximately 2 fold”, the “CHOP mRNA increase vs control DOX+” value is recorded as “approximately 2 fold”, the “CHOP protein elevation (Western blot)” value is “approximately 1.7 fold” and the “phosphorylated eIF-2α elevation (Western blot)” value is given as “approximately 1.8 fold”. The “PLP positive oligodendrocytes with Stat1 nuclear translocation” value with Stat1 (PLP/SOCS1 cultures) is reported as 6±2 cells. For the same substance, in the test with Stat1 (wild-type cultures), the “PLP positive oligodendrocytes with Stat1 nuclear translocation” value was determined as 96±3 cells.
